According to ChEMBL document CHEMBL3792277, “Structurally Diverse Mitochondrial Branched Chain Aminotransferase (BCATm) Leads with Varying Binding Modes Identified by Fragment Screening” (J Med Chem, 2016):
Converted amounts (≈) assume the structure as drawn.

Tested on: not listed separately
Test: Solubility of compound in PBS at pH 7.4 after 1 hr by chemiluminiscent nitrogen detection method
Assay type: physicochemical

Structure (SMILES)	solubility at 1 h [µg/mL]
NC(=O)c1ccc(N2CCc3ccccc3C2=O)cc1	132 (≈ 496 µM)
O=C(Nc1ccc(-c2cc[nH]n2)cc1)c1ccccc1	12 (≈ 45.6 µM)
O=C(Nc1cnc(-c2cc[nH]n2)nc1)c1ccccc1	82 (≈ 309 µM)
O=C1c2ccccc2CCN1c1ccc(-c2cc[nH]n2)cc1	94 (≈ 325 µM)
NC(=O)c1ccc(NC(=O)c2ccccc2)cc1	13 (≈ 54.1 µM)

Biological target: T1, Branched-chain-amino-acid aminotransferase, mitochondrial (Homo sapiens, UniProt O15382)
T1 sequence (O15382 whole entry): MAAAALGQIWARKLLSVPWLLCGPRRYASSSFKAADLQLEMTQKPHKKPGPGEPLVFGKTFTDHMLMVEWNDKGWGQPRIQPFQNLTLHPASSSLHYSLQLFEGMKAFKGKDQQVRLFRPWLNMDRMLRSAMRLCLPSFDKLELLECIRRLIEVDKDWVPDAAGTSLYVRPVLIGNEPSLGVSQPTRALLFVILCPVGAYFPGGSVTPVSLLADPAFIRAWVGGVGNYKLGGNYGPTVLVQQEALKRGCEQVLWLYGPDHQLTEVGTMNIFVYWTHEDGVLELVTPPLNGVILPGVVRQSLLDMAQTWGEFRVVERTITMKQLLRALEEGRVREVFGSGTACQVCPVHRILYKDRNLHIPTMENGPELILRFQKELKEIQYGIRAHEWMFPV
Test: Inhibition of human BCATm incubated for 10 mins by Amplex red- based fluorescence analysis

Structure (SMILES)	IC50 [µM]
Cc1ccccc1NC(=O)c1sc2ncnc(O)c2c1C	50.1
Cc1c(C(=O)Nc2ccccc2)sc2ncnc(O)c12	7.94
Cc1c(C(=O)O)sc2ncn(C)c(=O)c12	63.1
NC(=O)c1ccc(N2CCc3ccccc3C2=O)cc1	15.8
O=C(O)Cc1noc2ccccc12	> 1260
O=C(Nc1ccc(-c2cc[nH]n2)cc1)c1ccccc1	5.01
NC(=O)c1sccc1-c1ccccc1	158
O=C(O)Cc1ccccc1C(=O)Nc1ccccc1	316
OCc1ccc2nsnc2c1	> 1260
Cc1c(C(=O)NC2CCCC2)sc2ncn(C)c(=O)c12	> 63.1
CC1CNc2c(cccc2S(N)(=O)=O)C1 (configuration not stated)	> 1260
O=C(Nc1cnc(-c2cc[nH]n2)nc1)c1ccccc1	3.16
CS(=O)(=O)c1ccccc1C(=O)Nc1ccccc1	200
Cc1c(C(=O)N2CCCCC2)sc2ncn(C)c(=O)c12	> 631
O=C(Nc1cncnc1)c1ccccc1	1000
O=C(CO)NC1CCCc2ccccc21 (configuration not stated)	> 1260

Structure (SMILES)	IC50 [µM]
Nc1ccc(Oc2ccccc2)nn1	126
CCOC(=O)Cc1ccccc1NC(=O)c1sc2nc[nH]c(=O)c2c1C	> 63.1
O=C1c2ccccc2CCN1c1ccc(-c2cc[nH]n2)cc1	1.58
Cc1cccc(NC(=O)c2sc3nc[nH]c(=O)c3c2C)c1	> 63.1
O=C(O)Cc1ccccc1C(=O)Nc1ccc(-c2cc[nH]n2)cc1	2
NC(=O)c1ccc(NC(=O)c2ccc(Cl)c(Cl)c2)cc1	2.51
NC(=O)c1ccccc1-c1ccccc1	158
NC(=O)NCC(O)c1ccccc1 (configuration not stated)	794
Cc1c(C(=O)Nc2ccccc2)sc2ncn(C)c(=O)c12	7.94
Cc1cc2cc(C)c(SCC(=O)O)nc2cc1C	0.251
Cc1ccc(NC(=O)c2sc3nc[nH]c(=O)c3c2C)cc1	> 63.1
Cc1c(C(=O)Nc2ccon2)sc2nc[nH]c(=O)c12	> 63.1
Cc1c(C(=O)Nc2ccccc2S(C)(=O)=O)sc2nc[nH]c(=O)c12	> 63.1
NC(=O)c1ccc(NC(=O)c2ccccc2)cc1	50.1
CC(C)C(Sc1ncnc2ccccc12)C(=O)O (configuration not stated)	7.94
O=C(Nc1ccccc1)c1ccccc1 [N-PHENYLBENZAMIDE]	> 631
